pIC50: −log10 of the molar value.
What was measured:
Streptococcus pneumoniae = assay: Antibacterial activity against Streptococcus pneumoniae; type: functional
Neisseria meningitidis = assay: Antibacterial activity against Neisseria meningitidis; type: functional
Staphylococcus aureus = assay: Antibacterial activity against Staphylococcus aureus; type: functional
Escherichia coli = assay: Antibacterial activity against Escherichia coli; type: functional
[1] = target: T1, Beta-ketoacyl-[acyl-carrier-protein] synthase III (Enterococcus faecalis (strain ATCC 700802 / V583), UniProt Q820T1); assay: Inhibition of Enterococcus faecalis FabH by FabD/FabH coupled assay
T1 sequence (Q820T1 whole entry): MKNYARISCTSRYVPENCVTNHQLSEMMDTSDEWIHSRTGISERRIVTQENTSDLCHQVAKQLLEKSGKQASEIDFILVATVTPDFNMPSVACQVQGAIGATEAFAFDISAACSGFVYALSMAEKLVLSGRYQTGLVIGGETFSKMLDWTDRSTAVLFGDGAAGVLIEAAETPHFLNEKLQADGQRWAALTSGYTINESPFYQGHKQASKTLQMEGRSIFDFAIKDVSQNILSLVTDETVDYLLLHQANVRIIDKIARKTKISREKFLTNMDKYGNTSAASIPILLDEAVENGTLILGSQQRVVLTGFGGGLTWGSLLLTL

| pIC50 [1] | Structure (SMILES) | -logMIC (Streptococcus pneumoniae) | -logMIC (Neisseria meningitidis) | -logMIC (Staphylococcus aureus) | -logMIC (Escherichia coli) |
| --- | --- | --- | --- | --- | --- |
| – | O=C(Nc1ccccc1C(=O)O)c1ccc(-c2ccc(C(F)(F)F)cc2)c(Oc2ccccc2)c1 | 6.155 | 5.854 | 5.252 | 6.155 |
| – | CC1CC(C)CN(c2ccc(C(=O)Nc3ccccc3C(=O)O)cc2Oc2ccccc2)C1 (stereo not given) | 5.553 | 5.553 | 5.252 | 5.252 |
| 5.00 | O=C(NC1=CCSC1C(=O)O)c1cccc(Oc2ccccc2)c1 (stereo not given) | – | – | – | – |
| – | Cc1cc(-c2ccc(C(=O)Nc3ccccc3C(=O)O)cc2Oc2ccccc2)ccc1F | 6.155 | 6.155 | 5.252 | 6.155 |
| – | Cc1cc(-c2ccc(C(=O)Nc3ccccc3C(=O)O)cc2Oc2ccccc2)ccc1Cl | 5.553 | 6.155 | 5.252 | 6.155 |
| 8.40 | O=C(Nc1ccccc1C(=O)O)c1cc(O)c(-c2ccccc2)c(Oc2ccccc2)c1 | 4.658 | 5.854 | 4.658 | 5.854 |
| 6.39 | O=C(Nc1ccccc1C(=O)O)c1cc(O)cc(Oc2ccccc2)c1 | – | – | – | – |
| – | CC(C)c1cccc(-c2ccc(C(=O)Nc3ccccc3C(=O)O)cc2Oc2ccccc2)c1 | 5.854 | 5.854 | 5.252 | 5.553 |
| – | O=C(Nc1ccccc1C(=O)O)c1ccc(-c2ccccc2)c(Oc2ccccc2)c1 | 5.854 | 5.854 | 4.947 | 5.854 |
| 7.21 | O=C(Nc1ccccc1C(=O)O)c1cc(O)c(Br)c(Oc2ccccc2)c1 | 4.347 | 5.553 | 4.347 | 5.553 |
| 4.37 | O=C(NC1SC=CC1C(=O)O)c1cccc(Oc2ccccc2)c1 (stereo not given) | – | – | – | – |
| – | CS(=O)(=O)c1ccc(-c2ccc(C(=O)Nc3ccccc3C(=O)O)cc2Oc2ccccc2)cc1 | 4.347 | 5.252 | 4.347 | 5.252 |
| – | O=C(Nc1ccccc1C(=O)O)c1ccc(-c2ccc(F)cc2F)c(Oc2ccccc2)c1 | 5.553 | 6.444 | 5.252 | 6.155 |

— ChEMBL document CHEMBL1156671, “QSAR studies on benzoylaminobenzoic acid derivatives as inhibitors of beta-ketoacyl-acyl carrier protein synthase III” (Eur J Med Chem, 2008)
